Reference: ChEMBL document CHEMBL4610034, “Synthesis and biological evaluation of 4-arylcoumarins as potential anti-Alzheimer's disease agents” (Bioorg Med Chem Lett, 2020)
The source made the active and inactive calls. No cut-off for these calls is given here.

Legend:
Cholinesterase = Cholinesterase (Equus caballus, UniProt P81908); assay: Inhibition of equine serum BuChE using butyrylthiocholine as substrate preincubated for 5 mins followed by substrate addition measured after 20 mins by Ellman's method
Sequence of Cholinesterase (P81908 whole entry): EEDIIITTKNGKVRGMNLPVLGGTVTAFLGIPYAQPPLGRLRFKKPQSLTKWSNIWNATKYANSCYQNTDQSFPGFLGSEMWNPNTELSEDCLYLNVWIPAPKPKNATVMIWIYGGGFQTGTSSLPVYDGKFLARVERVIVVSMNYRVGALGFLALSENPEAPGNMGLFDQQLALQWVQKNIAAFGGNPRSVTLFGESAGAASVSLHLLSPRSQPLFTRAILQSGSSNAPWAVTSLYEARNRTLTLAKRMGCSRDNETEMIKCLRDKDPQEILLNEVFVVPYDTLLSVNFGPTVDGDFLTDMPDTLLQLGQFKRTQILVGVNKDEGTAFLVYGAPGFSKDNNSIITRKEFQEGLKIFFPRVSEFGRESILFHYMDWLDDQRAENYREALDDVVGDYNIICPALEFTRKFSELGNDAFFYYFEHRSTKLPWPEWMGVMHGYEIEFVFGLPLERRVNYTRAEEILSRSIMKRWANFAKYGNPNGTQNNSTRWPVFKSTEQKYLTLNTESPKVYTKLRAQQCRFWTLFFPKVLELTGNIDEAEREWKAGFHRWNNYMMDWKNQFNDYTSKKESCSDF

[1] = target: T1, Amine oxidase [flavin-containing] B (Rattus norvegicus, UniProt P19643); assay: Inhibition of MAO-B in Wistar rat liver using 4-trifluoromethyl benzylamine as substrate preincubated for 20 mins followed by substrate addition measured after 90 mins by microplate reader assay; type: tissue-based
T1 sequence (P19643 whole entry): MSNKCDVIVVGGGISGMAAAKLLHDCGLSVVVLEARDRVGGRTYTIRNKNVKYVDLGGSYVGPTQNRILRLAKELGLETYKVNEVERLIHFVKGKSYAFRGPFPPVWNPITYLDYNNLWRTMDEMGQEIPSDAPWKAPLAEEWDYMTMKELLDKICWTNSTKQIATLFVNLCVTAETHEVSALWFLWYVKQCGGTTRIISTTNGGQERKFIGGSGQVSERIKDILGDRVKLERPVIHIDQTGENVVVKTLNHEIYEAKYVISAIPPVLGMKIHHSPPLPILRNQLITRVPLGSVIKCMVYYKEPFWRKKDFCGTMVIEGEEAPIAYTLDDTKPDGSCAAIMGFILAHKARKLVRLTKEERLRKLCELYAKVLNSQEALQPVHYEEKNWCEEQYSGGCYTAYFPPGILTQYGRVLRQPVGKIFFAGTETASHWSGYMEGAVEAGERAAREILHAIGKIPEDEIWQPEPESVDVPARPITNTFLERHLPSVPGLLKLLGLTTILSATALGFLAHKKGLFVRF

Acetylcholinesterase = Acetylcholinesterase (Electrophorus electricus, UniProt O42275); assay: Inhibition of electric eel AChE using acetylthiocholine as substrate preincubated for 5 mins followed by substrate addition measured after 20 mins by Ellman's method
Sequence of Acetylcholinesterase (O42275 whole entry): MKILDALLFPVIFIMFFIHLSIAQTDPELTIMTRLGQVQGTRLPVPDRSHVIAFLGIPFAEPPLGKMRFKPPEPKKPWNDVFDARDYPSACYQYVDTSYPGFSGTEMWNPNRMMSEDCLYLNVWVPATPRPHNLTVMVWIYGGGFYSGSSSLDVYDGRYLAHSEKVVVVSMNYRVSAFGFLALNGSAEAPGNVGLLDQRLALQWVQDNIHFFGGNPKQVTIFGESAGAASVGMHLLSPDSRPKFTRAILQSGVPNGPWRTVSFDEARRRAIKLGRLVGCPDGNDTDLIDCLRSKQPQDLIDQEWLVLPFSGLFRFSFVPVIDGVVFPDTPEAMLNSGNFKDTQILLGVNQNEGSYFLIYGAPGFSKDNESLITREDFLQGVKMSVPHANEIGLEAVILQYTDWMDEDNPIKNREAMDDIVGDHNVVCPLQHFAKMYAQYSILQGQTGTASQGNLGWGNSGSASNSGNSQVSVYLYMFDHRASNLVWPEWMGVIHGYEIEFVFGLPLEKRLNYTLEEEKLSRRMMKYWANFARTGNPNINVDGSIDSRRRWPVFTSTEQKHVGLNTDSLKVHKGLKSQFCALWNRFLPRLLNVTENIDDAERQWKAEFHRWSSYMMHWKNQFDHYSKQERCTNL

[2] = Antioxidant activity assessed as reduction of colourless Fe3+-TPTZ complex to coloured Fe2+-TPTZ complex measured after 5 mins by FRAP assay; type: functional
[3] = target: T1, Amine oxidase [flavin-containing] B; assay: Non-competitive inhibition of MAO-B extracted from Wistar rat liver at 5 to 500 uM using varying level of 4-trifluoromethyl benzylamine as substrate preincubated for 20 mins followed by substrate addition measured after 90 mins by microplate reader assay; conditions: 1.5 h
[4] = target: Acetylcholinesterase (Electrophorus electricus) (UniProt O42275); assay: Mixed-type inhibition of electric eel AChE at 0.5 to 50 nM using varying level of acetylthiocholine as substrate preincubated for 5 mins followed by substrate addition measured after 20 mins by Ellman's method
Sequence of Acetylcholinesterase (Electrophorus electricus) (O42275 24-633 limits assumed): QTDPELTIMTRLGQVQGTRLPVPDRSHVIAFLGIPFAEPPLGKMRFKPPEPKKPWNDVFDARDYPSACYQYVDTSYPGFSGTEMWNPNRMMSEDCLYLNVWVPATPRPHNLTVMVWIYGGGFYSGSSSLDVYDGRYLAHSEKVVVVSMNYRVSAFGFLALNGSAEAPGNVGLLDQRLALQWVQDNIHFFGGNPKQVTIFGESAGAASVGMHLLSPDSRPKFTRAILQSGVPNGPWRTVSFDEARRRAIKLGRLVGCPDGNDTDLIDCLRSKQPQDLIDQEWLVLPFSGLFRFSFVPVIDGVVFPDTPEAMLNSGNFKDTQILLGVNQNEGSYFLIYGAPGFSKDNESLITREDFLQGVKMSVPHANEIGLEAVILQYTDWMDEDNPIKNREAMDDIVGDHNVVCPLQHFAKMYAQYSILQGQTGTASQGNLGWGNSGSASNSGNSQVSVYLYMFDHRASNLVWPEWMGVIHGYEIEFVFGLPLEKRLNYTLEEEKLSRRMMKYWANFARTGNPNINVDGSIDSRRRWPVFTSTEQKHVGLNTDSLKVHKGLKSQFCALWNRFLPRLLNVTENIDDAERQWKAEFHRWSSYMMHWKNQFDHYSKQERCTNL

| Structure (SMILES) | IC50 (Cholinesterase) | IC50 [1] | IC50 (Acetylcholinesterase) | Activity [2] | inhibition (INH) [3] | inhibition [4] |
| --- | --- | --- | --- | --- | --- | --- |
| COc1cc(-c2cc(=O)oc3c(O)c(O)ccc23)cc(OC)c1OC | > 300 µM | > 300 µM | 0.299 µM | 9.65 mmol/g | – | – |
| COc1ccc(C2CC(=O)Oc3ccc(O)cc32)cc1OC (stereo not drawn) | > 300 µM | > 300 µM | > 50 µM | 0.922 mmol/g | – | – |
| COc1cc(C2CC(=O)Oc3cc(O)ccc32)ccc1O (stereo not drawn) | > 300 µM | 82.5 µM | > 50 µM | 9.38 mmol/g | – | – |
| O=C1O[C@H]([C@@H](O)CO)C(O)=C1O | – | – | – | 9.87 mmol/g | – | – |
| COc1ccc(C2CC(=O)Oc3cc(O)ccc32)cc1 (stereo not drawn) | > 300 µM | > 300 µM | > 50 µM | 0.896 mmol/g | – | – |
| O=c1cc(-c2ccc(O)cc2)c2ccc(O)c(O)c2o1 | > 300 µM | 293 µM | 9.45 µM | 9.89 mmol/g | – | – |
| O=C1CC(c2ccc(O)cc2)c2c(O)cc(O)cc2O1 (stereo not drawn) | > 300 µM | 19.4 µM | > 50 µM | 2.26 mmol/g | – | – |
| O=c1cc(-c2ccc(O)c(O)c2)c2cc(O)cc(O)c2o1 | 208 µM | 22.2 µM | 7 µM | 10.5 mmol/g | – | – |
| COc1ccc(C2CC(=O)Oc3c(O)cc(O)cc32)cc1OC (stereo not drawn) | > 300 µM | 26.6 µM | > 50 µM | 4.76 mmol/g | – | – |
| COc1ccc(-c2cc(=O)oc3cc(O)cc(O)c23)cc1OC | > 300 µM | 104 µM | 7.92 µM | 1.37 mmol/g | – | – |
| COc1cc(C2CC(=O)Oc3c2ccc(O)c3O)ccc1O (stereo not drawn) | 134 µM | 0.257 µM | 10.9 µM | 10.1 mmol/g | Active | – |
| COc1ccc(C2CC(=O)Oc3cc(O)cc(O)c32)cc1OC (stereo not drawn) | > 300 µM | 141 µM | > 50 µM | 1.5 mmol/g | – | – |
| COc1ccc(C2CC(=O)Oc3c2ccc(O)c3O)cc1 (stereo not drawn) | 149 µM | 2.18 µM | 21.6 µM | 9.17 mmol/g | – | – |
| COc1ccc(C2CC(=O)Oc3c(O)cc(O)cc32)cc1 (stereo not drawn) | > 300 µM | 75.4 µM | > 50 µM | 2.85 mmol/g | – | – |
| O=c1cc(-c2ccc(O)c(O)c2)c2ccc(O)c(O)c2o1 | 188 µM | 189 µM | 7.05 µM | 10.5 mmol/g | – | – |
| O=c1cc(-c2cc(O)c(O)c(O)c2)c2ccc(O)c(O)c2o1 | 106 µM | 1.99 µM | 0.025 µM | 10.1 mmol/g | – | Active |
| O=C1CC(c2ccc(O)c(O)c2)c2ccc(O)c(O)c2O1 (stereo not drawn) | 72.5 µM | 0.43 µM | 0.283 µM | 9.6 mmol/g | – | – |
| COc1ccc(C2CC(=O)Oc3cc(O)cc(O)c32)cc1 (stereo not drawn) | > 300 µM | 83.7 µM | > 50 µM | 1.06 mmol/g | – | – |
| COc1cc(C2CC(=O)Oc3cc(O)cc(O)c32)ccc1O (stereo not drawn) | > 300 µM | 55.9 µM | > 50 µM | 9.01 mmol/g | – | – |
| O=c1cc(-c2ccc(O)c(O)c2)c2ccc(O)cc2o1 | > 300 µM | > 300 µM | 8.86 µM | 9.71 mmol/g | – | – |
| COc1ccc(-c2cc(=O)oc3c(O)c(O)ccc23)cc1OC | > 300 µM | > 300 µM | 0.052 µM | 9.89 mmol/g | – | – |
